Experiments:
[1] = test system: Aspergillus fumigatus; assay: Beagle model of invasive pulmonary aspergillosis in an immunocompromised host (TBI + steroids, bronchoscopic spore inoculation); assay type: in vivo
From the text: 1. The “Right” Animal: While choosing an animal the inventors had to consider that a human/clinical mold infection, such as an Aspergillus infection, usually begins as a localized infection and not as a widespread and diffuse pulmonary infection. To be able to reproducibly inoculate a specified dose of an infectious agent in a limited, defined part of the airways the inventors must have easy access to a particular part of the pulmonary tree. This meant that a large animal, such as dog, pig, sheep or monkey, rather than a rodent or lagomorph should be considered. The beagle, which is accepted by both the NCI and the FDA for safety studies of pharmaceutically active agents prior to entering clinical trials, was favored. This dog is easily accessible from several commercial breeders, and in addition to the selected experimental dogs one could conveniently house extra animal's for donation of both platelets and red cells to be transfused as needed during the supportive care phase of the experiments, i.e. after the mold administration.
2. Immunosuppression: For immunosuppression the inventors chose total body irradiation (TBI) with an X-ray (Cobalt) (XRT) source, administered with the animal under general anesthesia in a specially constructed box to obtain uniform radiation exposure. […] Further, the XRT dose can be calculated such that it gives a window of fairly deep immunosuppression sustained for 3-5 weeks, which should be sufficient for the intended purpose. The XRT was followed with daily oral prednisolone administration to further suppress T-lymphocyte and macrophage function and enhance spreading the infection.
3. Mold Species: More than 90% of human clinical Aspergillus infections are a result of Aspergillus fumigatus infection.
4. Mold Dose: To standardize the mold dosage, the inventors prepared batches of Aspergillus spores that were mixed in agarose and stirred down vigorously in mineral oil to obtain a suspension of spores encapsulated in small agarose beads (the approximate average bead diameter was 20 μm). After washing the beads in 0.5% deoxycholate, they were mixed with glycerol prior to cryopreservation and storage at −70° C. The use of agar beads and other encapsulation methods are also contemplated.
5. Mold Administration: The human clinical infection usually starts as a localized airway infection either in the sinuses or in a part of one lung, and not as a generalized pulmonary infection. The inventors decided to utilize a pediatric bronchoscope to safely and reproducibly introduce the Aspergillus spores in the intermediary (lower) right lung lobe. After standardization of the dose, 1×10^6 spores encapsulated in agarose beads and resuspended in NS were infused at each occasion.
6. Time of Mold Administration: In most human patients, Aspergillus infections occur at a time of leukopenia and profound immunosuppression. The time to develop leukopenia after TBI was very reproducible in the beagles. At day 10-14 days after XRT, when the animal's absolute white blood cell count falls below about 500 per μL (neutrophil count <400 per μL), the mold spore administration was performed. The WBC remain at about <500 per μL till day 25-30 after TBI, at which time the count recovered fairly rapidly in animal's that had not been inoculated with Aspergillus spores, or in beagles who had been inoculated with a dose that was too low to yield progressive infection.
7. Supportive Care: The first few animal's died from a superimposed secondary bacterial infection rather than from the mold infection itself In addition, there were bleeding complications when the dogs' platelet count fell below 10,000 per μL. The inventors therefore decided to utilize prophylactic oral (broad-spectrum) antibiotics and “prophylactic” platelet transfusions. […]

[2] = in vivo; cited from earlier work
[3] = human, in vivo; cited from earlier work
[4] = the two dogs that rejected the infection

Compound: C[C@@H]1C/C=C/C=C/C=C/C=C/[C@H](O[C@@H]2O[C@H](C)[C@@H](O)[C@H](N)[C@@H]2O)C[C@@H]2O[C@](O)(C[C@@H](O)C[C@H]3O[C@@H]3/C=C/C(=O)O1)C[C@H](O)[C@H]2C(=O)O [Natamycin]
- outcome of infection ([1]; after a 16-day cycle of daily Natamycin treatments): two animal's rejected the infection
- life span after fungal inoculation ([1]; one animal, expected life span nine days, daily intravenous Natamycin): 17 days
- Pneumonia ([1]; single dog, 1 x 10^6 spores, TBI 3.0 Gy, steroid 30/10 mg, platelet/antibiotic support): Yes
- Complications (outcome) ([1]; single dog, survived pneumonia 4 weeks post therapy): Dog survived
- necropsy finding [1, 4]: only signs of healing
- time free from resurgence of the mold infection post completion of drug treatment [1, 4]: one
- extended life as compared to untreated animals ([1]; therapy instituted a day after Aspergillus inoculum, last 3 beagles, 3.0 Gy TBI): Natamycin extended life by 80% as compared to untreated animals

Compound: CC[C@]1(O)C[C@@H]2CN(CCc3c([nH]c4ccccc34)[C@@](C(=O)OC)(c3cc4c(cc3OC)N(C)[C@H]3[C@@](O)(C(=O)OC)[C@H](OC(C)=O)[C@]5(CC)C=CCN6CC[C@]43[C@@H]65)C2)C1 [Vinblastine]
- administered dose recovered in the feces after biliary excretion [2]: about 10%
- dose excreted intact into the urine [2]: Approximately 15%

Compound: C[C@@H]1[C@H](O)[C@@H](C)/C=C/C=C/C=C/C=C/C=C/C=C/C=C/[C@H](O[C@@H]2O[C@H](C)[C@@H](O)[C@H](N)[C@@H]2O)C[C@@H]2O[C@](O)(C[C@@H](O)C[C@@H](O)[C@H](O)CC[C@@H](O)C[C@@H](O)CC(=O)O[C@H]1C)C[C@H](O)[C@H]2C(=O)O [AMB, Amphotericin B]
- cases with nephrotoxicity [3]: > 75%

Source: US6444872B1, “Large animal model of invasive pulmonary aspergillosis in an immunocompromised host” (priority 1999, dated 2002)
